The record followed here is US20240174637A1, “DEGRADERS OF GRK2 AND USES THEREOF” (Sonata Therapeutics, Inc., priority 2021, published 2024).

Each structure is given as a SMILES string. Counter-ions that a name gives are not always drawn.

Test [1] has as its target T1, GRK2 (Homo sapiens, UniProt P25098).
T1 sequence (P25098 1-689): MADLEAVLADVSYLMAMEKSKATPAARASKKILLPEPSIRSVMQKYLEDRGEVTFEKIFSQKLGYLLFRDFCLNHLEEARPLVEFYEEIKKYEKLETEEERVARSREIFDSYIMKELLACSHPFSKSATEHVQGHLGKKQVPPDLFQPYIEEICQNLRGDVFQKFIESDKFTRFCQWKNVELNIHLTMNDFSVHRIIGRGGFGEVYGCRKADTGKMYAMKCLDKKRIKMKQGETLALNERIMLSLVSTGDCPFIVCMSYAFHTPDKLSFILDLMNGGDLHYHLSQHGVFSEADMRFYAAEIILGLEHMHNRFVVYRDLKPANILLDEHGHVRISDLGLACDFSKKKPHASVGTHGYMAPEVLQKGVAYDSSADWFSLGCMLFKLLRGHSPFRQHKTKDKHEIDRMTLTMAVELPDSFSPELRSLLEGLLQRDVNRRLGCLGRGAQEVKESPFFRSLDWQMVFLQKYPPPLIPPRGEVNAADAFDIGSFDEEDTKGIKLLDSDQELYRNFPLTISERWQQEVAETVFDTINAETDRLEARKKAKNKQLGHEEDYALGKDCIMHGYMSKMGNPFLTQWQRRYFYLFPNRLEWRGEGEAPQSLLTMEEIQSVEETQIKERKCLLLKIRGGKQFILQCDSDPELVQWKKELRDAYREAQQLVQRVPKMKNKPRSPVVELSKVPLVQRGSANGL
The experiment in a line: GRK2 Inhibition Assay (TR-FRET, Example 1). In kind it is biochemical. The note with it: Table 4; Example 1 assay; read-out: Enzymatic GRK2 IC50: Av IC50 GRK2. Put shortly:
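GRK2 (1 nM) pre-incubated 30 min RT with compounds in HEPES/MgCl2/DTT/Tween-20/EGTA buffer, then reacted 90 min RT with 7 μM ATP and 50 nM ULight-TopoIIα substrate. Stopped with EDTA plus Eu anti-TopoIIα antibody; TR-FRET read after 60 min.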

Test [2] concerns PAXF1657 EV. The experiment in a line: 7-day cellular proliferation assay (CellTiter-Glo), PAXF1657 EV. The class given is cell-based. The note with it: proliferation, read-out: GeoMean IC50 (UM) PAXF1657 EV. Put shortly: (§1)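 Seven-day growth in PAXF1657 lines engineered for GRK2 overexpression or knockout, measured by CellTiter-Glo; compounds tested at 30 μM-0.0002 μM final and replenished once at day 3.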

Test [3] deals with PAXF1657 KO Clone #4. The experiment in a line: 7-day cellular proliferation assay (CellTiter-Glo), PAXF1657 KO Clone #4. The class given is cell-based. The note with it: proliferation, read-out: GeoMean IC50 (uM) PAXF1657 KO Clone #4. In a few lines: as §1
Test [4] addresses T1, GRK2. Kind of test: GRK2 Degradation Assay and Western Blot in PAXF1657 cells. In kind it is cell-based. More on the design: endogenous in cells; host or cells: PAXF1657. The note with it: read-out: Degradation Assay - 3 point: Degradation (%); for inhibition at 0.3 µM: Conc 0.3 uM; for inhibition at 1 µM: Conc 1 uM; for inhibition at 3 µM: Conc 3 uM. Put shortly: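 PAXF1657 cells grown to 70% confluency, then treated with compounds at 0–10 μM for 6 to 24 h at 37 °C. Lysates in PBS with 1% NP40 run on SDS-PAGE. GRK2 protein detected by western blot with β-actin as loading reference, using ECL chemiluminescence.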

For the molecule `Cc1ncsc1-c1ccc([C@H](C)NC(=O)[C@@H]2C[C@@H](O)CN2C(=O)[C@@H](NC(=O)COCCCOCCCCCOc2cccc([C@@H](C)NC(=O)c3cccc(NCc4nnc(-c5ccncn5)n4C)c3)c2)C(C)(C)C)cc1` [Compound D169], the IC50 in test [1] was determined as 14.5 nM. Besides, the IC50 in test [2] was determined as 120 nM. Moreover, the IC50 in test [3] was found to be 8.15 µM. In addition, in test [4], the inhibition at 0.3 µM amounted to 23.6%, the inhibition at 1 µM came out at 39.4% and the inhibition at 3 µM came to 24%.
On to `C[C@@H](NC(=O)c1cccc(NCc2nnc(-c3ccncn3)n2C)c1)c1cccc(OCCCCCCOCCOCC(=O)Nc2cccc3c2CN(C2CCC(=O)NC2=O)C3=O)c1` (stereo partly drawn) [Compound D170, N-((1R)-1-(3-((6-(2-(2-((2-(2,6-dioxopiperidin-3-yl)-1-oxoisoindolin-4-yl)amino)-2-oxoethoxy)ethoxy)hexyl)oxy)phenyl)ethyl)-3-(((4-methyl-5-(pyrimidin-4-yl)-4H-1,2,4-triazol-3-yl)methyl)amino)benzamide], for which the 50% inhibitory concentration (IC50) in test [1] stood at 12.1 nM. Besides, the IC50 in test [2] is 410 nM. Moreover, in test [3], the IC50 is greater than 30 µM. Further, in test [4], the inhibition at 0.3 µM was determined as 51.6%, the inhibition at 1 µM was 72.9% and the inhibition at 3 µM is 81.5%.
As for `C[C@@H](NC(=O)c1cccc(NCc2nnc(-c3ccncn3)n2C)c1)c1cccc(OCCCCCOCCCOCCNc2ccc3c(c2)CN(C2CCC(=O)NC2=O)C3=O)c1` (stereo partly drawn) [Compound D171, N-((1R)-1-(3-(5-(3-(2-(2-(2,6-dioxopiperidin-3-yl)-1-oxoisoindolin-5-ylamino)ethoxy)propoxy)pentyloxy)phenyl)ethyl)-3-((4-methyl-5-(pyrimidin-4-yl)-4H-1,2,4-triazol-3-yl)methylamino)benzamide], the IC50 in test [1] is 28.7 nM. Also, in test [2], the IC50 was determined as 90 nM. Besides, the IC50 in test [3] is greater than 30 µM. Moreover, in test [4], the inhibition at 0.3 µM was 89.7%, the inhibition at 1 µM came out at 90.6% and the inhibition at 3 µM came to 76.2%.
In the case of `C[C@@H](NC(=O)c1cccc(NCc2nnc(-c3ccncn3)n2C)c1)c1cccc(C(=O)N2CC(N3CCN(c4ccc5c(c4)CN(C4CCC(=O)NC4=O)C5=O)CC3)C2)c1` (stereo partly drawn) [Compound D172], the IC50 is 104 nM in test [1], 14100 nM in test [2] and greater than 30 µM in test [3]. Moreover, the inhibition at 0.3 µM in test [4] was -7.47%. Besides, the inhibition at 1 µM in test [4] is -8.22%. The inhibition at 3 µM in test [4] was -15.9%.
In the case of `C[C@@H](NC(=O)c1cccc(NCc2nnc(-c3ccncn3)n2C)c1)c1ccc(OCCCN2CCN(c3ccc4c(c3)CN(C3CCC(=O)NC3=O)C4=O)CC2)cc1` (stereo partly drawn) [Compound D173], the results for the IC50 in test [1], in test [2] and in test [3] were 18.6 nM, 30 nM and 0.26 µM, respectively. The inhibition at 0.3 µM in test [4] amounted to 52.5%. Besides, the inhibition at 1 µM in test [4] came out at 48.5%. The inhibition at 3 µM in test [4] came to 14.7%.
Consider `C[C@@H](NC(=O)c1cccc(NCc2nnc(-c3ccncn3)n2C)c1)c1ccc(OCCN2CCN(c3ccc4c(c3)CN(C3CCC(=O)NC3=O)C4=O)CC2)cc1` (stereo partly drawn) [Compound D174, N-((1R)-1-(4-(2-(4-(2-(2,6-dioxopiperidin-3-yl)-1-oxoisoindolin-5-yl)piperazin-1-yl)ethoxy)phenyl)ethyl)-3-((4-methyl-5-(pyrimidin-4-yl)-4H-1,2,4-triazol-3-yl)methylamino)benzamide hydrochloride], for which, in test [1], the IC50 was 12 nM. The IC50 in test [2] is less than 0.458 nM. For the same molecule, in test [3], the IC50 was greater than 30 µM. Besides, in test [4], the inhibition at 0.3 µM amounted to 63.6%, the inhibition at 1 µM worked out at 50.2% and the inhibition at 3 µM turned out to be 28.3%.
